In patent US20250346584A1, “NOVEL KAPPA OPIOID LIGANDS” (The Scripps Research Institute, priority 2012, published 2025):

What follows are molecules tested against kappa opioid receptor (OPRK1) (Homo sapiens (Human), UniProt P41145) (assay: OPRK1 antagonist assay (b-arrestin-2-TEV / b-lactamase reporter cell line, EC80 U-50488 challenge)). Details: % inhibition at the concentration given.
Type: cell-based

Sequence of kappa opioid receptor (OPRK1) (P41145 whole entry): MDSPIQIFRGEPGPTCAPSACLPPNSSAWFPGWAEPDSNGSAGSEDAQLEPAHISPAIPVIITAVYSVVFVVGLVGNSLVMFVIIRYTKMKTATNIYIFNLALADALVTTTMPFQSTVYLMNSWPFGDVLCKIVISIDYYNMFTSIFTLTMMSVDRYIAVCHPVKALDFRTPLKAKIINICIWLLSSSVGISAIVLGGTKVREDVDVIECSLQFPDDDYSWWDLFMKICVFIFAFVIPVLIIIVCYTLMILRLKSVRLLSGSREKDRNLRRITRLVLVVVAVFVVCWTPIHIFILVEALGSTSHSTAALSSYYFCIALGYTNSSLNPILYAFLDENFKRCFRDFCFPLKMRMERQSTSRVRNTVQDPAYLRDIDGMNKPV

Structure (SMILES) | % inhib if other than 50%
COC(=O)c1cc(Br)cnc1N1CCC(NCCO)CC1 [compound 6] | 80%

Same assay, conditions: read-out: IC50 nM (% inhib if other than 50%); antagonist mode vs EC80 U-50488; NA = not active at concentrations up to 10 μM

Structure (SMILES) | IC50
CCc1noc(-c2cc3cc(C)ccc3nc2N2CCC(NC3CCCCC3)C(CO)C2)n1 (stereo not drawn) [compound 284] | 20 nM
COC1CN(c2ncc(Br)cc2C(C)=O)CCC1NC1CCCCC1 (stereo not drawn) [C61] | 10000 nM
Cc1ccc2nc(N3CCC(NC4CCCCC4)C(CO)C3)c(C(=O)N(C)C)cc2c1 (stereo not drawn) [compound 280] | 99 nM
Cc1noc(-c2nc3ccccc3nc2N2CCC(NC3CCCCC3)C(CO)C2)n1 (stereo not drawn) [compound 189] | 125 nM
OCC1CN(c2ncc(Br)cc2-c2nc(C3CC3)no2)CCC1NC1CCCCC1 (stereo not drawn) [compound 151] | 2100 nM
COC(=O)c1cc(I)cnc1N1CCC(NC2CCCCC2)C(O)C1 (stereo not drawn) [compound 126] | 112 nM
CNC(=O)c1cc2cc(C)ccc2nc1N1CCC(NC2CCCCC2)C(OC)C1 (stereo not drawn) [compound 278] | 4720 nM
COC(=O)c1cccnc1N1CCC(NC2CCCCC2OC)C(O)C1 (stereo not drawn) [compound 54] | 559 nM
Cc1ccc2nc(N3CCC(NC4CCOCC4)CC3)c(-c3nc(C)no3)nc2c1 [compound 518] | 410 nM
COC(=O)c1cc(C)c(C)nc1N1CCC(NC2CCCCC2)C(CO)C1 (stereo not drawn) [compound 162] | 1400 nM
CC(=O)c1cc(Br)cnc1N1CCC(NC2CCCCC2)CC1 [compound 96] | 6700 nM
Cc1noc(-c2cc(C)c(C)nc2N2CCC(NC3CCCCC3)C(CO)C2)n1 (stereo not drawn) [compound 164] | 62 nM
Cc1ccc2nc(N3CCC(NC4CCOCC4)CC3)c(-c3ccc(C)o3)cc2c1 [compound 501] | 331 nM
COC1CN(c2nc3ccc(C)cc3cc2-c2nc(C)no2)CCC1NC1CCCCCC1 (stereo not drawn) [compound 312] | 0.7 nM
Cc1ccc2nc(N3CCC(NC4CCC(O)CC4)CC3)c(-c3nc(C)no3)cc2c1 (stereo not drawn) [compound 246] | 51 nM
Cc1ccc2nc(N3CCC(NC4CCC(F)(F)CC4)CC3)c(-c3nc(C)no3)cc2c1 [compound 435] | 6 nM
CO[C@H]1CN(c2nc3ccc(C)cc3nc2-c2nc(C)no2)CC[C@H]1NC1CCCCC1 [compound 519] | 95 nM
Cc1cnc(N2CCC(C)(NC3CCCCC3)CC2)c(-c2nc(C)no2)c1 [compound 357] | 22.3 nM
Cc1ccc2nc(N3CCC(NC(C)C4CCCCC4)CC3)c(-c3nc(C)no3)cc2c1 (stereo not drawn) [compound 349] | 21 nM
CO[C@H]1CN(c2nc3ccccc3cc2-c2cnc(C)cn2)CC[C@H]1NC1CCCCC1 [compound 470] | 40 nM
COC(=O)c1cc(Br)cnc1N1CCC(N2CCCCC2)CC1 [compound 18] | 2100 nM
COC(=O)c1cc(Br)cnc1N1CCC(NC2CCOCC2)CC1 [compound 13] | 621 nM

Structure (SMILES) | IC50
Cc1cnc(N2CCC(NC3CCCCC3)C(CO)C2)c(-c2ncccn2)c1 (stereo not drawn) [compound 245] | 79 nM
Cc1cnc(-c2cc(C)cnc2N2CCC(NC3CCCCC3)CC2)nc1 [compound 406] | 7680 nM
COC(=O)c1cc(Br)cnc1N1CCC(NC2CCCCC2)C(C(=O)OC)C1 (stereo not drawn) [compound 116] | 793 nM
COC(=O)c1cc(Br)cnc1N1CCC(NC2CCC[C@H]2O)CC1 (stereo partly drawn) [compound 12] | 765 nM
Cc1noc(-c2cc3ccc(Cl)cc3nc2N2CCC(NCC(C)C)CC2)n1 [compound 541] | 45 nM
COC(=O)c1cc(Br)cnc1N1CCC(NC2CCCCC2)C(OC)C1 (stereo not drawn) [compound 73] | 205 nM
Cc1noc(-c2cc3c(F)cccc3nc2N2CCC(NC3CCOCC3)CC2)n1 [compound 477] | 42 nM
Cc1noc(-c2cc3ccccc3nc2N2CCC(NC3CCOCC3)C(CO)C2)n1 (stereo not drawn) [compound 198] | 98 nM
COC(=O)c1cc(Br)cnc1N1CCC(NC2CCCCC2)C(C)(C)C1 (stereo not drawn) [compound 63] | 234 nM
Cc1noc(-c2cc(C)c(C)nc2N2CC[C@@H](NC3CCCCC3)[C@H](O)C2)n1 [compound 154] | 146 nM
Cc1ccc2nc(N3CCC(NCC4CCCCC4O)CC3)c(-c3nc(C)no3)cc2c1 (stereo not drawn) [compound 352] | 3.1 nM
COC1CN(c2nc3cccc(F)c3cc2-c2nc(C)no2)CCC1NC1CCCCC1 (stereo not drawn) [compound 252] | 12 nM
Cc1noc(-c2cc3ccccc3nc2N2CCC(NC3CCCOC3)CC2)n1 (stereo not drawn) [compound 235] | 4 nM
Cc1nc(-c2cc3ccc(F)cc3nc2N2CCC(N[C@H]3CCCC[C@@H]3O)CC2)no1 [compound 485] | 673 nM
CCOC(=O)c1cc(C(=O)OC)c(C)nc1N1CCC(NC2CCCCC2)C(CO)C1 (stereo not drawn) [compound 93] | 621 nM
COC(=O)c1cc(Br)cnc1N1CCC(N[C@@H]2CCCC[C@H]2O)CC1 [compound 1] | 231 nM
CO[C@@H]1CN(c2ncc(C)cc2C(=O)OC(C)C)CC[C@@H]1NC1CCCCC1 [compound 361] | 1440 nM
Cc1noc(-c2cc3cc(F)ccc3nc2N2CC[C@@H](NC3CCCCC3)[C@H](O)C2)n1 [compound 241] | 59 nM
Cc1cnc(N2CCC(NC3CCCCC3)C(CO)C2)c(C#N)c1 (stereo not drawn) [C68] | > 20000 nM
CCOC(=O)c1cc(C#N)c(C)nc1N1CCC(NC2CCCCC2)C(O)C1 (stereo not drawn) [C53] | 13000 nM
COC(=O)c1cc(I)cnc1N1CCC(NC2CCCCC2OC)C(CO)C1 (stereo not drawn) [compound 91] | 198 nM
CO[C@@H]1CN(c2nc3cc(F)ccc3cc2-c2nc(C)no2)CC[C@@H]1NC1CCCCC1 [compound 514] | 55 nM

Structure (SMILES) | IC50
CCc1cnc(N2CC[C@@H](NC3CCCCC3)[C@H](O)C2)c(-c2nc(C)no2)c1 [compound 156] | 1000 nM
COC1CN(c2nc3ccccc3cc2-c2nc(C)no2)CCC1NC1CCCCC1 (stereo not drawn) [compound 292] | 33 nM
COC1CN(c2nc3ccc(C)cc3cc2-c2nc(C)no2)CCC1NC1CCCCC1 (stereo not drawn) [compound 293] | 20 nM
Cc1ccc2nc(N3CCC(NCC(C)C)CC3)c(-c3ccncn3)cc2c1 [compound 534] | 600 nM
CO[C@H]1CN(c2ncc(C)cc2-c2nc(C)no2)CC[C@H]1NC1CCCCC1 [compound 299] | 25 nM
Cc1noc(-c2cc3cc(C)c(F)cc3nc2N2CCC(NCC(C)C)CC2)n1 [compound 498] | 33 nM
COC(=O)c1cccnc1N1CCC(NC2CCCCC2C)C(O)C1 (stereo not drawn) [compound 53] | 5600 nM
Cc1nc(-c2cc3cc(F)ccc3nc2N2CCC(NC3CCCCC3)CC2)no1 [compound 467] | 431 nM
COC(=O)c1cc(C)c(C)nc1N1CCC(NC2CCCCC2)C(OC)C1 (stereo not drawn) [compound 163] | 915 nM
Cc1ccc2nc(N3CCC(NC4CCOCC4)CC3)c(-c3nc(C4CC4)no3)cc2c1 [compound 305] | 17 nM
COC(=O)c1cc(Br)cnc1N1CCC(NC2CCC(C)CC2)CC1 (stereo not drawn) [compound 16] | 536 nM
CO[C@H]1CN(c2nc3ccc(C)cc3cc2-c2nc(C)no2)CC[C@H]1NC1CCCCC1 [compound 294] | 0.7 nM
COC(=O)c1cc(Br)cnc1N1CCC(NC2CCCCC2)C(F)C1 (stereo not drawn) [compound 52] | 3400 nM
Cc1noc(-c2cc(Br)cnc2N2CCC(NC3CCCCC3)C(CO)C2)n1 (stereo not drawn) [compound 145] | 117 nM
COC(=O)c1cc(Br)cnc1N1CCC(NC2CCCCC2)C(OC(C)=O)C1 (stereo not drawn) [C49] | 17000 nM
Cc1nc(-c2cc3cc(C)c(F)cc3nc2N2CCC(NC3CCOCC3)CC2)no1 [compound 507] | 43 nM
COC(=O)c1cc(C)cnc1N1CC[C@@H](NC2CCCCC2)[C@H](O)C1 [compound 128] | 35 nM
COC1CN(c2nc(C)c(C)cc2-c2nc(C)no2)CCC1NC1CCCC1 (stereo not drawn) [compound 317] | 27 nM
Cc1noc(-c2cc3ccccc3nc2N2CCC(NC3CCCCC3)CC2)n1 [compound 209] | 18 nM
COC(=O)c1cc(Br)cnc1N1CCC(NC2CCCCC2)CC1C (stereo not drawn) [compound 64] | 901 nM
COC(=O)c1cc2ccccc2nc1N1CCC(NC2CCCCC2)C(CO)C1 (stereo not drawn) [compound 157] | 37 nM
COC(=O)c1cc(Br)cnc1N1CCC(NC2CCCCC2C)C(O)C1 (stereo not drawn) [compound 58] | 419 nM

Structure (SMILES) | IC50
COC(=O)c1cc(Br)cnc1N1CCC(NC2CCCCC2CO)CC1 (stereo not drawn) [compound 65] | 2300 nM
COC(=O)c1cc(Br)cnc1N1CCC(O)C(NC2CCCCC2)C1 (stereo not drawn) [compound 47] | 2800 nM
Cc1ccc2nc(N3CCC(NC4CCCCCCC4)CC3)c(-c3nc(C)no3)cc2c1 [compound 260] | 261 nM
Cc1ccc2nc(N3CCC(Nc4ncccn4)CC3)c(-c3nc(C)no3)cc2c1 [C83] | 47000 nM
CCOC(=O)c1cc(C)c(C)nc1N1CCC(NC2CCCCC2)C(CO)C1 (stereo not drawn) [compound 159] | 35 nM
COC1CN(c2nc3cc(C)c(C)cc3cc2-c2nc(C)no2)CCC1NC1CCCCC1 (stereo not drawn) [compound 306] | 107 nM
COC1CN(c2nc3ccc(C)cc3cc2-c2nc(C)no2)CCC1NCC(C)C (stereo not drawn) [compound 375] | 12 nM
COC(=O)c1cc(Br)cnc1N1CCC(NC2C3CC4CC(C3)CC2C4)CC1 (stereo not drawn) [compound 11] | 2800 nM
Cc1ccc2nc(N3CCC(NC4CCOCC4)CC3)c(C(=O)OC(C)C)cc2c1 [compound 302] | 274 nM
CO[C@@H]1CN(c2nc3ccc(C)cc3cc2C(C)=O)CC[C@@H]1NC1CCCCC1 [compound 484] | 347 nM
Cc1nc(-c2cc3ccc(F)cc3nc2N2CCC(NC3CCCCC3)CC2)no1 [compound 480] | 8 nM
COC(=O)c1cccnc1N1CCC(NC2CCCCCC2)C(O)C1 (stereo not drawn) [compound 55] | 1800 nM
COC1CCCCC1NC1CCN(c2ncc(C)cc2-c2nc(C)no2)CC1CO (stereo not drawn) [compound 196] | 414 nM
Cc1ccc2nc(N3CCC(NC4CCCCC4)C(CO)C3)c(-c3nc(C4CC4)no3)cc2c1 (stereo not drawn) [compound 304] | 3.5 nM
COC(=O)c1cc(I)cnc1N1CCC(NC2CCCCC2)C(CO)C1 (stereo not drawn) [compound 77] | 11 nM
Cc1ccc2nc(N3CCC(NC4CC(C)OC(C)C4)CC3)c(-c3nc(C)no3)cc2c1 (stereo not drawn) [compound 274] | 50 nM
Cc1ccc2nc(N3CCC(NC4COC4)CC3)c(-c3nc(C)no3)cc2c1 [compound 270] | 4470 nM
COC1CN(c2nc3ccc(F)cc3cc2-c2nc(C)no2)CCC1NC1CCCCC1 (stereo not drawn) [compound 242] | 26 nM
Cc1noc(-c2cc3ccc(F)c(C)c3nc2N2CCC(NCC(C)C)CC2)n1 [compound 494] | 64 nM
COC(=O)c1cc(Br)cnc1N1CCC(NCCO)CC1 [compound 6] | 9200 nM
